Results from patent US5298521A, “1,5-diphenyl-3-pyrazolylalkyl-N-hydroxydithiocaramates, compositions and use” (Ortho Pharmaceutical Corporation, priority 1993, dated 1994).

Assays:
[1] = molecular target: T1, RBL-1 cell cyclooxygenase (Rattus norvegicus, UniProt Q63921); test: RBL-1 cell cyclooxygenase, cell homogenate supernatant (Procedure II); type: biochemical; conditions: RBL-1 homogenate, 3 μM; read-out: PROC. II % INHIBITION CO
T1 construct: the supernatant was saved as the source of enzymes; endogenous in cells; host or cells: RBL-1 rat basophilic leukemia cells, homogenate supernatant
T1 sequence (Q63921 27-602): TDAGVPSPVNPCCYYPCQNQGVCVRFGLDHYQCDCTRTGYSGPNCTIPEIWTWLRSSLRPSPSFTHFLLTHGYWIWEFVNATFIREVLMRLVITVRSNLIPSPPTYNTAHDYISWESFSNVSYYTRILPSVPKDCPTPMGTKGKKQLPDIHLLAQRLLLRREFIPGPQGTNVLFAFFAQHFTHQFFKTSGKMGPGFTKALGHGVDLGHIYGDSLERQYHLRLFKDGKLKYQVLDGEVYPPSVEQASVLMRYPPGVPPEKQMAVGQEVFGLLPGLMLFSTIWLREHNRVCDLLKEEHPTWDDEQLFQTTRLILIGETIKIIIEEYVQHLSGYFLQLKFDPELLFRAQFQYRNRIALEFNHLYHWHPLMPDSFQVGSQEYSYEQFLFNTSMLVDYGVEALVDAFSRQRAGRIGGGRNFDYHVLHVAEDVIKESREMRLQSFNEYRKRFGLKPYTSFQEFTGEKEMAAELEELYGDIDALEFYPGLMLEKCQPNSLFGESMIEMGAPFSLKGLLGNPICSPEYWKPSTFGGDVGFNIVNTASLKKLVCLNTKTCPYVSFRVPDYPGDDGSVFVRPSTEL
Experimental: (§1) RBL-1 cell 5-lipoxygenase and cyclooxygenase
(§2) Rat basophilic leukemia cells (RBL-1; 5×10^7 viable cells/mL) were disrupted by homogenization on ice (four 20 sec bursts) with a Brinkman polytron. Complete cell breakage was verified microscopically. The homogenate was then centrifuged at 10,000×g for 48 minutes at 4° C. The pellet was discarded and the supernatant was saved as the source of enzymes. The supernatant was pre-incubated for five minutes at 37° C. in the presence of 2 mM of CaCl2 and compound or vehicle (1% DMSO). The conversion of AA into 5-LO products was initiated by adding 10 μL (50 μCi) of 1-^14 C-AA to each tube and incubated at 37° C. for 20 minutes. The reaction was stopped by adjusting the pH of each sample to 3 to 3.5 with 2M formic acid. Samples were extracted with three volumes of chloroform to isolate the products of 5-LO formed during the reaction. Fractions were dried under nitrogen, then resuspended in 40 μL of chloroform and spotted onto silica gel HL plates. The plates were developed in A-9 solvent. The dried plates were analyzed using a Bioscan Imaging TLC scanner to determine the percentage of radiolabelled AA converted to 5-HETE in each sample.

[2] = molecular target: T2, 5-LO in intact RBL-1 cells (Rattus norvegicus, UniProt P12527); test: 5-LO inhibition in intact RBL-1 cells (Procedure III); type: cell-based; conditions: read-out: PROC. III IC50 5-LO
T2 construct: endogenous in cells; host or cells: intact RBL-1 cells
T2 sequence (P12527 1-673): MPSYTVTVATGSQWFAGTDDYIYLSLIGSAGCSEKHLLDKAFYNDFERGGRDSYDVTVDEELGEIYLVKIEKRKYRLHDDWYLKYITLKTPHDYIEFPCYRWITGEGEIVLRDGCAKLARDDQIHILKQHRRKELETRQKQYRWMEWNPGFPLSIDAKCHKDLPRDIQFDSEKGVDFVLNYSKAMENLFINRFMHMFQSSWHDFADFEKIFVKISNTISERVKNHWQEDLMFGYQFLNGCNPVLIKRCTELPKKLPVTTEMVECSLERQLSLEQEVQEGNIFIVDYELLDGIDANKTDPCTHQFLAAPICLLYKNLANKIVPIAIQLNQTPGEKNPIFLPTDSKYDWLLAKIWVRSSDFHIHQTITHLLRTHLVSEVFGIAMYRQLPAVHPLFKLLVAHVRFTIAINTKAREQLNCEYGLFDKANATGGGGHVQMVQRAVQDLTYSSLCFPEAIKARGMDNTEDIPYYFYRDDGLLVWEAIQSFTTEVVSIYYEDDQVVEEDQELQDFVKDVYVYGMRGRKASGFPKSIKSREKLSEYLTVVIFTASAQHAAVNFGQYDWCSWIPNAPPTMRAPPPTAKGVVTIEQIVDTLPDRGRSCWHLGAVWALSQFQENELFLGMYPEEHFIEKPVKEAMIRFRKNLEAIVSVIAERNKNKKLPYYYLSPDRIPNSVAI
Experimental: (§3) The ability to inhibit 5-LO and CO in intact RBL-1 cells was also evaluated. RBL-1 cells were maintained in culture in minimal essential medium (Bio*Whittaker, Walkersville, MD), containing 12.5% fetal calf serum, 10 mg/mL streptomycin, 10 I.U./mL penicillin G, […] gentamycin and 2 mM L-glutamine (Bio*Whittaker, Walkersville, MD). Cells were collected by centrifugation, washed once in HBSS, and resuspended at a concentration of 1×10^5 cells/mL. Cells were incubated in the presence of vehicle or drug then centrifuged at 800×g for 10 minutes at 4° C. The supernatant was removed by aspiration and the cells were resuspended in 0.5 mL of HBSS. The reaction was started by the addition of 20 μg/mL of calcium ionophore A-23187 (mixed calcium and magnesium salts, Calbiochem, La Jolla CA) and allowed to proceed for 15 minutes, then stopped by plunging the tubes into a slush ice bath. The conversion of AA to 5-LO products was initiated by the addition of 10 μL (50 uCi) of 1-^14 C-AA. Products were isolated by acidification and extraction, followed by thin layer chromatography analysis as described above. Radioactive areas corresponding to authentic 5-LO and CO products were quantitated by the Bioscan 2000 Imaging System.

CO in intact RBL-1 cells = test: CO inhibition in intact RBL-1 cells (Procedure III); type: cell-based, rat; conditions: superscript = number of experiments, read-out: PROC. III IC50 CO
Experimental: as §3

[3] = molecular target: T3, RBL-1 cell 5-lipoxygenase (Rattus norvegicus, UniProt P12527); test: RBL-1 cell 5-lipoxygenase, cell homogenate supernatant (Procedure II); type: biochemical; conditions: RBL-1 homogenate, 3 μM; read-out: PROC. II % INHIBITION 5-LO
T3 construct: the supernatant was saved as the source of enzymes; endogenous in cells; host or cells: RBL-1 rat basophilic leukemia cells, homogenate supernatant
T3 sequence (P12527 1-673): T2 sequence (P12527 1-673)
Experimental: as §1, §2

[4] = molecular target: T4, Sheep seminal vesicle cyclooxygenase (Ovis aries, UniProt P05979); test: Sheep seminal vesicle cyclooxygenase (Procedure I); type: biochemical; conditions: read-out: PROC. I % INHIB CO
T4 construct: Sheep seminal vesicle (SSV) cyclooxygenase (95% pure); purchased Biomol (Plymouth Meeting, Pa.); host or cells: sheep seminal vesicle
T4 sequence (P05979 25-600): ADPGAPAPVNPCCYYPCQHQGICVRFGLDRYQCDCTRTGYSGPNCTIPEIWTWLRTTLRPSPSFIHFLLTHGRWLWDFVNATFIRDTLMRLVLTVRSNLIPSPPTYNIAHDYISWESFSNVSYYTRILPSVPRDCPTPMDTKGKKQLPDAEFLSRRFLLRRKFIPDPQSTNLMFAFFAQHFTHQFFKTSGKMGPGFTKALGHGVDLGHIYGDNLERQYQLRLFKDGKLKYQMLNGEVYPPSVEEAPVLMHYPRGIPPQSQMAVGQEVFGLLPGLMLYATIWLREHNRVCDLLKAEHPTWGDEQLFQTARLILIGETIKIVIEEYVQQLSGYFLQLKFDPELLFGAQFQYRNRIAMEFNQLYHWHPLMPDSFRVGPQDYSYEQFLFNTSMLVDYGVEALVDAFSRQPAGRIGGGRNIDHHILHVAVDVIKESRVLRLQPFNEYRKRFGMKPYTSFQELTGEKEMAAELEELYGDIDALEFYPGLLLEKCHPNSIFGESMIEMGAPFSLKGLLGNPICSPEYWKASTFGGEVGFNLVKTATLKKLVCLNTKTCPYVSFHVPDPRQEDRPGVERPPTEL
Experimental: Sheep seminal vesicle cyclooxygenase Sheep seminal vesicle (SSV) cyclooxygenase (95% pure, prostaglandin endoperoxide synthase, EC 1.14.99.1 specific activity 24 units/mg protein) obtained as a lyophilized powder from Biomol (Plymouth Meeting, Pa.) was reconstituted at a concentration of 59 mg/mL in Hanks' Balanced Salt Solution (HBSS). The enzyme was divided into 200 μL aliquots, snap frozen with liquid N2, and stored at -70° C. unitl immediately prior to use. Measurements of CO activity were carried out in polypropylene tubes containing 495 μL of HBSS to which was added 5 μL of inhibitor or dimethylsulfoxide (DMSO; vehicle control) and 6 μL of SSV CO solution. The tubes were mixed on a vortex shaker, preincubated for 5 min at 37° C. prior to the initiation of the reaction. The reaction was started by the addition of [^14 C]-arachidonic acid (1-^14 C-AA, Amersham, Arlington Heights, Il) in 10 μL of methanol. Tubes were again vortexed and incubated in a water bath for 20 minutes after which the tubes were removed and the reaction stopped by acidification with the addition of 1 mL 2M formic acid. Lipophilic products were extracted with 3 mL chloroform and concentrated to dryness under N2. Each pellet was reconstituted with 40 μL of chloroform and spotted on a Whatman Silicon thin-layer chromatography plate and developed in a chromatography tank containing A-9 solvent (11:5:2:1 V:V:V:V, ethyl acetate:trimethylpentane:acetic acid:double distilled-H2 O). Radioactive cyclooxygenase products (prostaglandin D2, prostaglandin E2, etc.) were measured using a Bioscan System 200 Imaging Scanner. Inhibition of enzyme activity was calculated by comparing the areas under the curve produced in the presence or absence of test compound.

SMILES	inhibition at 3 µM [1]	IC50 [2]	IC50 (CO in intact RBL-1 cells)	inhibition at 3 µM [3]	inhibition at 3 µM [4]
COc1ccc(-n2nc(CSC(=S)N(C)O)cc2-c2ccc(Cl)cc2)cc1 [1-A, 5-(4-chlorophenyl)-1-(4-methoxyphenyl)-3-pyrazolylmethyl-N-hydroxy-N-methyl dithiocarbamate]	100%	2.5 µM	0.23 µM	85%	
COc1ccc(-n2nc(CSC(=S)N(O)C(C)C)c(Br)c2-c2ccc(C)cc2)cc1 [1-K]	0%			87%	0%
COc1ccc(-n2nc(CSC(=S)N(C)O)cc2-c2ccc(C)cc2)cc1 [1-F]	100%	2.4 µM	0.06 µM	83%	

Further lines, results first:

inhibition at 3 µM [1]	IC50 [2]	IC50 (CO in intact RBL-1 cells)	inhibition at 3 µM [3]	inhibition at 3 µM [4]	SMILES
0%			82%	0%	COc1ccc(-n2nc(CSC(=S)N(O)C(C)C)c(Cl)c2-c2ccc(C)cc2)cc1 [1-I]
52%			83%	36%	COc1ccc(-n2nc(CSC(=S)N(C)O)c(Br)c2-c2ccc(C)cc2)cc1 [1-J]
